{
  "source": "paper PMC10964431",
  "about": "(European journal of medicinal chemistry, 2024)",
  "key": {"[1]": {"tested_on": "SARS-CoV-2^WK−521", "assay": "Immunocytochemistry assay of infected VeroE6 cells", "format": "cell-based", "details": "for infected cells by immunocytochemistry: VeroE6 cells exposed to SARS-CoV-2^WK−521; for infectivity and cytopathic effect of SARS-CoV-2: VeroE6^TMPRSS2 cells"}, "[2]": {"target": "SARS-CoV-2 3CLpro (Severe acute respiratory syndrome coronavirus 2, UniProt P0DTD1)", "assay": "SARS-CoV-2 3CLpro", "format": "biochemical"}, "[3]": {"tested_on": "VeroE6 cells"}, "[4]": {"tested_on": "SARS-CoV-2", "format": "cell-based", "details": "VeroE6 cells"}},
  "note": "Entries after “also recorded” stand apart in the source; their conditions may differ.",
  "data": [
    {"smiles": "CC(C)(C)[C@H](NC(=O)C(F)(F)F)C(=O)N1C[C@H]2[C@@H]([C@H]1C(=O)N[C@H](C#N)C[C@@H]1CCCNC1=O)C2(C)C", "note": "[Compound 5e, (1R,2S,5S)-N-((S)-1-Cyano-2-((S)-2-oxopiperidin-3-yl)ethyl)-3-((S)-3,3-dimethyl-2-(2,2,2-trifluoroacetamido)butanoyl)-6,6-dimethyl-3-azabicyclo[3.1.0]hexane-2-carboxamide]", "values": [
      {"measurement": "infected cells by immunocytochemistry", "setting": "[1]; 1 μM compound", "result": "some infected cells were observed"},
      {"measurement": "infected cells by immunocytochemistry", "setting": "[1]; 10 μM compound", "result": "hardly any infected cells"},
      {"measurement": "infected cells by immunocytochemistry", "setting": "[1]; 100 μM compound", "result": "hardly any infected cells"},
      {"measurement": "infectivity and cytopathic effect of SARS-CoV-2", "setting": "[1]", "result": "significantly reduced; also recorded: potently blocked"},
      {"measurement": "improvement of Mpro inhibitory activity over nirmatrelvir 1", "setting": "[2]; ratio of Ki values", "result": "more than 6 fold"},
      {"measurement": "toxicity", "setting": "[3]", "result": "without significant toxicity"}
    ]},
    {"smiles": "CC(C)(C)[C@H](NC(=O)C(Cl)(Cl)Cl)C(=O)N1C[C@H]2[C@@H]([C@H]1C(=O)N[C@H](C#N)C[C@@H]1CCCNC1=O)C2(C)C", "note": "[Compound 5f, (1R,2S,5S)-N-((S)-1-Cyano-2-((S)-2-oxopiperidin-3-yl)ethyl)-3-((S)-3,3-dimethyl-2-(2,2,2-trichloroacetamido)butanoyl)-6,6-dimethyl-3-azabicyclo[3.1.0]hexane-2-carboxamide]", "values": [
      {"measurement": "improvement in antiviral activity over nirmatrelvir 1", "setting": "[4]; ratio of EC50 values", "result": "over 7 fold"}
    ]},
    {"smiles": "CC(C)(C)[C@H](NC(=O)C(F)(F)F)C(=O)N1C[C@H]2[C@@H]([C@H]1C(=O)N(C(=O)C(F)(F)F)[C@H](C#N)C[C@@H]1CCNC1=O)C2(C)C", "note": "[Compound 5h, (1R,2S,5S)-N-((S)-1-Cyano-2-((S)-2-oxopyrrolidin-3-yl)ethyl)-3-((S)-3,3-dimethyl-2-(2,2,2-trifluoroacetamido)butanoyl)-6,6-dimethyl-N-(2,2,2-trifluoroacetyl)-3-azabicyclo[3.1.0] hexane-2-carboxamide]", "values": [
      {"measurement": "Mpro inhibitory activity (in words)", "setting": "[2]", "result": "no appreciable"},
      {"measurement": "antiviral activity (in words)", "setting": "[4]", "result": "no appreciable"}
    ]},
    {"smiles": "CC(C)(C)[C@H](NC(=O)OCc1cccnc1)C(=O)N1C[C@H]2[C@@H]([C@H]1C(=O)N[C@H](C#N)C[C@@H]1CCNC1=O)C2(C)C", "note": "[Compound 5k, Pyridin-3-ylmethyl((2S)-1-((1R,2S,5S)-2-((1-cyano-2-((S)-2-oxopyrrolidin-3-yl)ethyl)carbamoyl)-6,6-dimethyl-3-azabicyclo[3.1.0]hexan-3-yl)-3,3-dimethyl-1-oxobutan-2-yl)carbamate]", "values": [
      {"measurement": "improvement of antiviral activity compared to benzyl carbamate derivative 5i", "setting": "[4]", "result": "> 8", "unit": "fold"}
    ]},
    {"smiles": "CC(C)(C)NC(=O)N[C@H](C(=O)N1C[C@H]2[C@@H]([C@H]1C(=O)N[C@H](C#N)C[C@@H]1CCNC1=O)C2(C)C)C(C)(C)C", "note": "[Compound 5m, (1R,2S,5S)-3-((S)-2-(3-(Tert-butyl)ureido)-3,3-dimethylbutanoyl)-N-((S)-1-cyano-2-((S)-2-oxopyrrolidin-3-yl)ethyl)-6,6-dimethyl-3-azabicyclo[3.1.0]hexane-2-carboxamide]", "values": [
      {"measurement": "loss of antiviral activity compared to Boc-derivative 5g", "setting": "[4]", "result": 3, "unit": "fold"}
    ]},
    {"smiles": "CC(C)(C)[C@H](NC(=O)C(F)(F)F)C(=O)N1C[C@H]2[C@@H]([C@H]1C(=O)N[C@H](C#N)C[C@@H]1CCNC1=O)C2(C)C", "note": "[Nirmatrelvir, (1R,2S,5S)-N-((S)-1-Cyano-2-((S)-2-oxopyrrolidin-3-yl)ethyl)-3-((S)-3,3-dimethyl-2-(2,2,2-trifluoroacetamido)butanoyl)-6,6-dimethyl-3-azabicyclo[3.1.0]hexane-2-carboxamide, reference compound]", "values": [
      {"measurement": "infected cells by immunocytochemistry", "setting": "[1]; 1 μM compound", "result": "complete viral breakthrough"},
      {"measurement": "infected cells by immunocytochemistry", "setting": "[1]; 10 μM compound", "result": "hardly any infected cells"},
      {"measurement": "infected cells by immunocytochemistry", "setting": "[1]; 100 μM compound", "result": "hardly any infected cells"},
      {"measurement": "infectivity and cytopathic effect of SARS-CoV-2", "setting": "[1]", "result": "potently blocked"}
    ]}
  ]
}
